# According to patent publication US20240382600A1, “BIFUNCTIONAL DEGRADERS COMPRISING A TEAD BINDER” (Novartis AG, priority 2021, published 2024):
# Columns and labels:
# [1] = target: Avi-humanTEAD4^217-434 / Cy5 labeled humanYAP^60-100 (Homo sapiens (Human), UniProt Q15561); assay: In-vitro biochemical TR-FRET assay (TEAD4/YAP); type: binding; details: 1 h at room temperature
# Experimental: N-terminus Cy5 labeled humanYAP^60-100 (20 nM) was then added to this preparation. Compounds were dissolved at 10 mM in 100% DMSO and serial dilutions were made in 100% DMSO. The diluted compound solutions were incubated in white 384-well plates (Greiner Bio-One) for 1 h at room temperature with the above described mix. The final DMSO concentration present in the assay was 1%. […] The IC50 values were estimated by fitting the data by nonlinear fit regression (GraphPad Prism).
# [2] = tested on: YAP-dependent transcription in NCI-H2052 Tet-On shYAP_2371 pLenti6 MCAT_Luc cells; assay: YAP reporter gene activity assay (MCAT-Luc), NCI-H2052; type: cell-based; details: Homo sapiens, 24 hrs
# [3] = tested on: YAP-dependent transcription in SF268-MCAT_Luc_dox-i-shYAPLevy (Clone 13) cells; assay: YAP reporter gene activity assay (MCAT-Luc), SF268; type: cell-based; details: Homo sapiens, SF-268; SF268 MCAT_Luc, 24 hrs
# [4] = tested on: MKN-45/Ubc-luc cells (unspecific inhibition of luciferase expression or activity); assay: Reporter gene assay specificity control (Ubc-Luc), MKN-45; type: cell-based; details: Homo sapiens; MKN-45/Ubc-luc specificity control, 24 hrs
# Excerpt: (§1) NCI-H2052 mesothelioma cells (RRID: CVCL_1518) bearing Hippo-pathway inactivating mutations upstream of YAP (homozygous deletion of LATS2 and mutation of NF2) were obtained from ATCC (American Type Culture Collection), while SF268 glioma cells (RRID: CVCL_1689) overexpressing YAP due to genomic amplification were obtained from the NCI (National Cancer Institute). MKN-45 gastric adenocarcinoma cells (RRID: CVCL_0434) genomically deleted for YAP were obtained from the JCRB (Japanese Collection of Research Bioresources) Cell Bank.
# As a specificity control, MKN-45 cells were stably transduced with a Ubc-Luc reporter construct, in which constitutive expression of firefly luciferase is driven by the promoter of the ubiquitin C housekeeping gene. The resulting cell line, MKN-45/Ubc-luc, was selected and maintained in growth medium (RPMI 1640 (Amimed Cat #1-41F01-I), 2 mM L-Glutamine (Amimed Cat #5-10K50-H), 10% fetal calf serum (Amimed Cat #2-01F30-I Lot K08815P), 1% MEM Non-essential amino acids (Amimed Cat #5-13K00-H), 1× Penicillin/Streptomycin (Amimed Cat #4-01F00-H)) containing 1 μg/ml blasticidin (Gibco Cat #A11139-03).
# (§2) Stock solutions of compounds were prepared at a concentration of 10 mM in DMSO and stored at 4° C. Where necessary to afford a full dose-response curve, the stock solutions were pre-diluted in DMSO to 1′000-fold the desired reduced start concentration. On the day after cell seeding, eleven 2-fold serial dilutions of each compound were dispensed directly into the cell assay plates using a HP 300D non-contact Digital Dispenser (TECAN). The final concentration of DMSO was normalized to 0.1% in all wells.
# The ability of compounds to inhibit YAP-dependent transcription was assessed in NCI-H2052 Tet-On shYAP_2371 pLenti6 MCAT_Luc and SF268-MCAT_Luc, dox-i-shYAPLevy (Clone 13) cells, while specificity (lack of unspecific inhibition of luciferase expression or activity) was assessed in MKN-45/Ubc-luc cells. The individual cell lines were seeded at 2′500 cells/20 μl/well into white-wall, clear-bottom 384-well plates (Greiner, Cat #781098) and incubated over night at 37° C. prior to addition of serial compound dilutions as described above. Following incubation for 24 hrs at 37° C., compound-mediated modulation of reporter-gene activity was quantified 5 min after addition 20 μL […] BrightGlo (Promega Cat #E2620), by measuring luminescence intensity on a multi-mode plate-reader (TECAN) with an integration time of 100 ms.
# (§3) For data analysis, the assay background value determined in wells containing medium, but no cells, was subtracted from all data points.
# [5] = tested on: NCI-H2052 Tet-On shYAP_2371 pLenti6 MCAT_Luc cells; assay: Proliferation assay (resazurin/AlamarBlue), NCI-H2052; type: cell-based; details: Homo sapiens; NCI-H2052, 72 hours
# Excerpt: as §1, §2
# (§4) After incubation for 72 hours at 37° C., compound-mediated modulation of cell viability was quantified as follows. […] To enable differentiation of cytotoxic from cytostatic compound effects, the number of viable cells on the day of compound addition (day 0) was assessed in a separate cell plate and used to assess the extent of cell viability suppression as described in the following section.
# as §3
# (§5) The extent of growth inhibition and potential cell kill was assessed by comparing the resorufin levels in compound-treated cells with those present at the time of compound addition. To this end, the following conditional concept was programmatically applied in HELIOS to calculate % growth (% G) for each compound-treated well: % G=(T−V0)/V0))*100 when T<V0, and % G=(T−V0)/(V−V0)))*100 when T≥V0, where V0 is the viability level at time of compound addition, while V and T represent vehicle-control and compound-treated viability levels, respectively, at the end of the compound incubation. 100%, 0% and −100% signify absence of growth inhibition, growth stasis, and complete cell kill, respectively. Compound concentrations leading to half-maximal growth inhibition (GI50) and residual cell viability at the highest tested compound concentration (Data(cmax), expressed in percent) were routinely calculated.
# [6] = tested on: SF268-MCAT_Luc_dox-i-shYAPLevy (Clone 13) cells; assay: Proliferation assay (resazurin/AlamarBlue), SF268; type: cell-based; details: Homo sapiens, SF-268; SF268, 72 hours
# Excerpt: as §1, §2, §4, §3, §5
# [7] = tested on: MKN-45/Ubc-luc cells; assay: Proliferation assay (resazurin/AlamarBlue), MKN-45; type: cell-based; details: Homo sapiens; MKN-45, 72 hours
# Excerpt: as §1
# As a specificity control, MKN-45 cells were stably transduced with a Ubc-Luc reporter construct, in which constitutive expression of firefly luciferase is driven by the promoter of the ubiquitin C housekeeping gene.
# as §2, §4, §3, §5
# Sequence of Avi-humanTEAD4^217-434 / Cy5 labeled humanYAP^60-100 (Q15561 217-434): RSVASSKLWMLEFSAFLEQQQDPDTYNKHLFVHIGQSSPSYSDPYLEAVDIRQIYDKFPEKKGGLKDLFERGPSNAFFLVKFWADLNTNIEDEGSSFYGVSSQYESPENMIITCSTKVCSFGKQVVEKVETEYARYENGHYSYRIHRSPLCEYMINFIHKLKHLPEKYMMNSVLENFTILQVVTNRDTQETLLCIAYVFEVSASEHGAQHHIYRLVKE
SMILES,IC50 [1] [µM],IC50 [2] [µM],IC50 [3] [µM],IC50 [4] [µM],GI50 [5] [µM],GI50 [6] [µM],GI50 [7] [µM]
"COc1ccc(C(N)=O)c(-c2c(Cl)c(F)cc3c2[C@H](C)[C@@](CN[C@H]2CC[C@H](C(=O)O)CC2)(c2ccccc2)O3)c1F (atropisomer, axis not shown) [C-I, (1S,4r)-4-((((2S,3S,4S)-4-(6-carbamoyl-2-fluoro-3-methoxyphenyl)-5-chloro-6-fluoro-3-methyl-2-phenyl-2,3-dihydrobenzofuran-2-yl)methyl)amino)cyclohexane-1-carboxylic acid]",0.0022,0.13,0.18,> 2,0.17,> 2,> 2
"COc1ccc(C(=O)N2CCC(OC3CCN(CCNC(=O)[C@H]4CC[C@H](NC[C@]5(c6ccccc6)Oc6cc(F)c(Cl)c(-c7c(C(N)=O)ccc(OC)c7F)c6[C@@H]5C)CC4)CC3)CC2)cc1N1CCC(=O)NC1=O (atropisomer, axis not shown) [Example 4, 2-((2S,3S,4S)-5-chloro-2-((((1r,4S)-4-((2-(4-((1-(3-(2,4-dioxotetrahydropyrimidin-1(2H)-yl)-4-methoxybenzoyl)piperidin-4-yl)oxy)piperidin-1-yl)ethyl)carbamoyl)cyclohexyl)amino)methyl)-6-fluoro-3-methyl-2-phenyl-2,3-dihydrobenzofuran-4-yl)-3-fluoro-4-methoxybenzamide]",0.0011,0.049,0.0017,> 20,0.14,0.033,> 20
"COc1ccc(C(=O)N2CCC(OC3CN(C(=O)[C@H]4CC[C@H](NC[C@]5(c6ccccc6)Oc6cc(F)c(Cl)c(-c7c(C(N)=O)ccc(OC)c7F)c6[C@@H]5C)CC4)C3)CC2)cc1N1CCC(=O)NC1=O (atropisomer, axis not shown) [Example 8, 2-((2S,3S,4S)-5-chloro-2-((((1r,4S)-4-(3-((1-(3-(2,4-dioxotetrahydropyrimidin-1(2H)-yl)-4-methoxybenzoyl)piperidin-4-yl)oxy)azetidine-1-carbonyl)cyclohexyl)amino)methyl)-6-fluoro-3-methyl-2-phenyl-2,3-dihydrobenzofuran-4-yl)-3-fluoro-4-methoxybenzamide]",0.0016,0.12,0.0031,> 20,0.31,0.12,> 20
"COc1ccc(C(=O)N2CCC(CCC3CCN(C(=O)[C@H]4CC[C@H](NC[C@]5(c6ccccc6)Oc6cc(F)c(Cl)c(-c7c(C(N)=O)ccc(OC)c7F)c6[C@@H]5C)CC4)CC3)CC2)cc1N1CCC(=O)NC1=O (atropisomer, axis not shown) [Example 27, 2-((2S,3S,4S)-5-chloro-2-((((1r,4S)-4-(4-(2-(1-(3-(2,4-dioxotetrahydropyrimidin-1(2H)-yl)-4-methoxybenzoyl)piperidin-4-yl)ethyl)piperidine-1-carbonyl)cyclohexyl)amino)methyl)-6-fluoro-3-methyl-2-phenyl-2,3-dihydrobenzofuran-4-yl)-3-fluoro-4-methoxybenzamide]",0.004,0.00066,0.00017,> 2,0.0038,0.005,> 2
"COc1ccc(C(N)=O)c(-c2c(Cl)c(F)cc3c2[C@H](C)[C@@](CN[C@H]2CC[C@H](C(=O)N4CCC(CC5CCN(C(=O)COc6ccc(Cl)c(N7CCC(=O)NC7=O)c6)CC5)CC4)CC2)(c2ccccc2)O3)c1F (atropisomer, axis not shown) [Example 28, 2-((2S,3S,4S)-5-chloro-2-((((1r,4S)-4-(4-((1-(2-(4-chloro-3-(2,4-dioxotetrahydropyrimidin-1(2H)-yl)phenoxy)acetyl)piperidin-4-yl)methyl)piperidine-1-carbonyl)cyclohexyl)amino)methyl)-6-fluoro-3-methyl-2-phenyl-2,3-dihydrobenzofuran-4-yl)-3-fluoro-4-methoxybenzamide]",0.0027,0.0044,0.00092,> 2,0.016,0.031,> 2
"COc1ccc(C(N)=O)c(-c2c(Cl)c(F)cc3c2[C@H](C)[C@@](CN[C@H]2CC[C@H](C(=O)N4CCC(CC5CCN(C(=O)COc6ccc(F)c(N7CCC(=O)NC7=O)c6)CC5)CC4)CC2)(c2ccccc2)O3)c1F (atropisomer, axis not shown) [Example 29, 2-((2S,3S,4S)-5-chloro-2-((((1r,4S)-4-(4-((1-(2-(3-(2,4-dioxotetrahydropyrimidin-1(2H)-yl)-4-fluorophenoxy)acetyl)piperidin-4-yl)methyl)piperidine-1-carbonyl)cyclohexyl)amino)methyl)-6-fluoro-3-methyl-2-phenyl-2,3-dihydrobenzofuran-4-yl)-3-fluoro-4-methoxybenzamide]",0.0033,0.0038,0.00064,> 2,0.013,0.017,> 0.2
"COc1ccc(OCC(=O)N2CCC(CC3CCN(C(=O)[C@H]4CC[C@H](NC[C@]5(c6ccccc6)Oc6cc(F)c(Cl)c(-c7c(C(N)=O)ccc(OC)c7F)c6[C@@H]5C)CC4)CC3)CC2)cc1N1CCC(=O)NC1=O (atropisomer, axis not shown) [Example 30, 2-((2S,3S,4S)-5-chloro-2-((((1r,4S)-4-(4-((1-(2-(3-(2,4-dioxotetrahydropyrimidin-1(2H)-yl)-4-methoxyphenoxy)acetyl)piperidin-4-yl)methyl)piperidine-1-carbonyl)cyclohexyl)amino)methyl)-6-fluoro-3-methyl-2-phenyl-2,3-dihydrobenzofuran-4-yl)-3-fluoro-4-methoxybenzamide]",0.0026,0.0069,0.0011,> 2,0.027,0.035,> 0.2
